Assay results reported in publication PMC12439166, “Dietary flavonoids form supramolecular assemblies, alter biochemistry, and enhance cell resilience” (Frontiers in Nutrition, 2025).
“Also recorded” adds a separate entry of the source.

Target: T1, MAP/microtubule affinity-regulating kinase 4 (MARK4) (Homo sapiens, UniProt Q96L34)
T1 sequence (Q96L34 1-752): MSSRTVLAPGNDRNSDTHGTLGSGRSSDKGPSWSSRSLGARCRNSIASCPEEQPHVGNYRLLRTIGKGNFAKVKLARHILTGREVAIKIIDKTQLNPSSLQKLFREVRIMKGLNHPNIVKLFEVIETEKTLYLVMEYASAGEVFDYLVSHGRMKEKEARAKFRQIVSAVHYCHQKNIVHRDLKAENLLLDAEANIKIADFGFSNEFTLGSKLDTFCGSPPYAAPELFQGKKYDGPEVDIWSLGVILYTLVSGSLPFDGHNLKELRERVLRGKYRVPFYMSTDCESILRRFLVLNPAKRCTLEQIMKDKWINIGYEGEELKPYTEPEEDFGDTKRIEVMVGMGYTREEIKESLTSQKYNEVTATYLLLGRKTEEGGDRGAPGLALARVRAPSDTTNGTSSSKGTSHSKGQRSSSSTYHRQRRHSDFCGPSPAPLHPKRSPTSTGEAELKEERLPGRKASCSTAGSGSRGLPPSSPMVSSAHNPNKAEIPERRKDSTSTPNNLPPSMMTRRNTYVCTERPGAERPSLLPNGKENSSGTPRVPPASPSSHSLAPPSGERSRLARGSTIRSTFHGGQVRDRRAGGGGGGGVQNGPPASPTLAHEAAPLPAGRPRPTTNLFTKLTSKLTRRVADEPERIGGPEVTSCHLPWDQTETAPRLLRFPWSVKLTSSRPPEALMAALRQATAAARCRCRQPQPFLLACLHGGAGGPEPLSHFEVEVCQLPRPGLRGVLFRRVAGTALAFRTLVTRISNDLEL
Assay: Enzyme activity assay (SAMDI-MS), MARK4
Type: biochemical
Settings: 10 concentrations, 5 nM to 100 μM, compounds incubated with enzyme 30 min, result in words
Experimental: Enzyme screens were performed by SAMDI Tech (contract research organization); enzyme assays were performed in a 20 μL volume in 384-well low-volume polypropylene microtiter plates (Greiner Bio-One) at room temperature. The enzymes [Arginase 1 (ARG1), Lysine demethylase 4C (KDM4C), MAP/microtubule affinity-regulating kinase 4 (MARK4), Histone-Lysine N-methyltransferase (NSD2), Tyrosine-protein phosphatase non-receptor type 1 (PTP1B), and Sirtuin-3 (SIRT3)] were incubated with compounds for 30 min prior to initiation of the reaction by the addition of substrate and cofactors (if required). Reactions were quenched by the addition of 0.5% formic acid (final) with subsequent neutralization using 1% sodium bicarbonate (final). For SAMDI MS analysis, 2 μL of each reaction was transferred using a 384-channel automated liquid handler to SAMDI biochip arrays functionalized with a neutravidin-presenting self-assembled monolayer. The preparation of SAMDI biochip arrays has been previously described ([41], [42], [49]). The SAMDI arrays were incubated for 1 h in a humidified chamber to allow specific immobilization of the biotinylated substrates and products; they were then purified by washing with ultrafiltered water (50 μL/spot) and dried with compressed air. A matrix comprising α-Cyano-4-hydroxycinnamic acid in 80% acetonitrile: 20% aqueous ammonium citrate (10 mg/mL final) was applied in an automated format by dispensing 50 nL to each spot in the array. SAMDI MS was performed using reflector positive mode on an AB Sciex TOF-TOF 5800 System (AB Sciex, Framingham, MA) with 400 shots/spot analyzed in a random raster sampling. For data analysis, the area under the curves (AUCs) for the product peak and substrate peak were calculated using the TOF/TOF Series Explorer (AB Sciex), and the amount of product formed was calculated using the equation AUC product / (AUC product + AUC Substrate). Negative controls were pre-quenched with 0.5% formic acid (final). Lysozyme assay was performed using the manufacturer’s instructions (Biovision Lysozyme inhibitor screening kit K237). Flavonoids were acquired from Sigma-Aldrich and Seleckchem.
IC50 values of enzyme inhibition. Inhibition of the enzymes was measured at 10 concentration values in the range of 5 nM to 100 μM for each compound and enzyme, with two technical replicates; the percent inhibition values were determined by SAMDI software. Sigmoidal curves were fitted to the percent inhibition vs log10 (concentration) series, and IC50 values were determined at the crossing point of 50 % inhibition. […] First, for each IC50 value per compound and enzyme, a Z-score was calculated based on the log10 (IC50) value and that of the compounds that produced a successful readout for enzyme i , according to Equation 1: […]

Row | SMILES | inhibition of enzyme activity, MARK4 | inhibition of enzyme activity, MARK4 (listed as Quercetin) | inhibition of enzyme activity, MARK4 (listed as Quercitin)
1 | O=c1c(O[C@@H]2O[C@H](CO)[C@@H](O)[C@H](O)[C@H]2O)c(-c2ccc(O)c(O)c2)oc2cc(O)cc(O)c12 [isoquercitrin] | inhibited |  | 
2 | O=c1c(O)c(-c2ccc(O)c(O)c2)oc2cc(O)cc(O)c12 [quercetin] |  | inhibited | concentration-dependent inhibition
3 | C[C@@H]1O[C@@H](Oc2c(-c3ccc(O)c(O)c3)oc3cc(O)cc(O)c3c2=O)[C@H](O)[C@H](O)[C@H]1O [quercitrin] | did not affect; also recorded: did not inhibit |  | 
